# Measurements: paper PMC11240139, “Exploring the antitumor potential of novel quinoline derivatives via tubulin polymerization inhibition in breast cancer; design, synthesis and molecular docking” (RSC Advances, 2024)
# Assays:
# Assay in all cases: NCI-60 SRB cytotoxicity screen
# Assay type in all cases: cell-based
# [1] = tested on: MOLT-4 (leukemia); settings: Homo sapiens; MOLT-4, single dose 10 μM; read-out: growth inhibition (GI%)
# [2] = tested on: NCI-H23 (non-small cell lung cancer); settings: Homo sapiens; NCI-H23, single dose 10 μM; read-out: growth inhibition (GI%)
# [3] = tested on: NCI-H460 (non-small cell lung cancer); settings: Homo sapiens; NCI-H460, single dose 10 μM; read-out: growth inhibition (GI%)
# [4] = tested on: NCI-H522 (non-small cell lung cancer); settings: Homo sapiens; NCI-H522, single dose 10 μM; read-out: growth inhibition (GI%)
# [5] = tested on: HT29 (colon cancer); settings: Homo sapiens, HT-29; HT29, single dose 10 μM; read-out: growth inhibition (GI%)
# [6] = tested on: KM12 (colon cancer); settings: Homo sapiens; KM12, single dose 10 μM; read-out: growth inhibition (GI%)
# [7] = tested on: SW-620 (colon cancer); settings: Homo sapiens; SW-620, single dose 10 μM; read-out: growth inhibition (GI%)
# [8] = tested on: SF-539 (CNS cancer); settings: Homo sapiens; SF-539, single dose 10 μM; read-out: growth inhibition (GI%)
# [9] = tested on: SNB-19 (CNS cancer); settings: Homo sapiens; SNB-19, single dose 10 μM; read-out: growth inhibition (GI%)
# [10] = tested on: LOX IMVI (melanoma); settings: Homo sapiens, single dose 10 μM, read-out: growth inhibition (GI%)
# [11] = tested on: MALME-3M (melanoma); settings: Homo sapiens, single dose 10 μM, read-out: growth inhibition (GI%)
# [12] = tested on: M14 (melanoma); settings: Homo sapiens; M14, single dose 10 μM; read-out: growth inhibition (GI%)
# [13] = tested on: MDA-MB-435 (melanoma); settings: Homo sapiens, MDA-MB-435, read-out: growth inhibition (GI%);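 also: growth inhibition in percent at a single 10 µM dose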
# [14] = tested on: SK-MEL-28 (melanoma); settings: Homo sapiens; SK-MEL-28, single dose 10 μM; read-out: growth inhibition (GI%)
# [15] = tested on: SK-MEL-5 (melanoma); settings: Homo sapiens; SK-MEL-5, single dose 10 μM; read-out: growth inhibition (GI%)
# [16] = tested on: IGROV1 (ovarian cancer); settings: Homo sapiens, IGROV-1; IGROV1, single dose 10 μM; read-out: growth inhibition (GI%)
# [17] = tested on: NCI/ADR-RES (ovarian cancer); settings: Homo sapiens, single dose 10 μM, read-out: growth inhibition (GI%)
# [18] = tested on: 786-0 (renal cancer); settings: Homo sapiens; 786-0, single dose 10 μM; read-out: growth inhibition (GI%)
# [19] = tested on: A498 (renal cancer); settings: Homo sapiens; A498, single dose 10 μM; read-out: growth inhibition (GI%)
# [20] = tested on: ACHN (renal cancer); settings: Homo sapiens, single dose 10 μM, read-out: growth inhibition (GI%)
# [21] = tested on: CAKI-1 (renal cancer); settings: Homo sapiens; CAKI-1, single dose 10 μM; read-out: growth inhibition (GI%)
# [22] = tested on: SN12C (renal cancer); settings: Homo sapiens, single dose 10 μM, read-out: growth inhibition (GI%)
# [23] = tested on: TK-10 (renal cancer); settings: Homo sapiens; TK-10, single dose 10 μM; read-out: growth inhibition (GI%)
# [24] = tested on: MCF7 (breast cancer); settings: Homo sapiens; MCF7, single dose 10 μM; read-out: growth inhibition (GI%)
# [25] = tested on: BT-549 (breast cancer); settings: Homo sapiens; BT-549, single dose 10 μM; read-out: growth inhibition (GI%)
# [26] = tested on: MDA-MB-468 (breast cancer); settings: Homo sapiens; MDA-MB-468, single dose 10 μM; read-out: growth inhibition (GI%)
# Protocol: The cytotoxic activity of the synthesized quinoline derivatives was determined by the national cancer institute (NCI, Bethesda, Maryland, USA) against 60 different cancer cell lines at a single high dose (10^−5 M) in the full NCI 60 cell panel using the sulforhodamine B assay for cell viability evaluation. In summary, 5 × 10^3 cells were in 96-well plate and incubated in complete media for 24 h. Cells were treated with 100 μL of media containing each newly synthesized compound. After drug exposure, cells were fixed by replacing media with 150 μL of 10% TCA and incubated at 4 °C for 1 h. The TCA solution was removed, and the cells were washed 5 times with distilled water. Aliquots of 70 μL SRB solution (0.4% w/v) were added and incubated in a dark place at room temperature for 10 min. The plates were washed 3 times with 1% acetic acid and allowed to air-dry overnight. Then, 150 μL of TRIS (10 mM) was added to dissolve protein-bound SRB stain. The absorbance was measured at 540 nm.% Cytotoxicity = [1 − (AVx/AVNC)] × 100where AVx denotes the average absorbance of the sample well and AVNC denotes the average absorbance of the negative control.
# The methodology of the NCI anticancer screening has been described in details at (http://www.dtp.nci.nih.gov). The anticancer assay was performed in full NCI 60 cell lines derived from nine tumor subpanels, including leukemia, lung, colon, CNS, melanoma, ovarian, renal, prostate, and breast cancer cell lines.
# The cell lines were first cultured for 48 h, after being exposed to a single dosage of the compound. Using the protein-binding dye sulforhodamine B dye, cell proliferation and viability were evaluated (SRB assay). The results were presented for each chemical as GI%. Compound that met NCI criteria for substantial activity were further evaluated using a five-dose experiment. The NCI60 cell lines were treated with the chemicals in this assay at five different concentration levels (0.01, 0.1, 1, 10, and 100 μM).
compound,measurement,setting,value
"CCc1cccc2cc(C3C=C(c4ccc(Br)cc4)NC(=S)N3)c(Cl)nc12 (centres unmarked) [Compound 6e, 6-(4-Bromophenyl)-4-(2-chloro-8-ethylquinolin-3-yl)-3,4-dihydropyrimidine-2(1H)-thione]",inhibition at 10 µM,[1],26.2%
same,inhibition at 10 µM,[2],< 10%
same,inhibition at 10 µM,[3],< 10%
same,inhibition at 10 µM,[4],< 10%
same,inhibition at 10 µM,[5],11.9%
same,inhibition at 10 µM,[6],< 10%
same,inhibition at 10 µM,[7],< 10%
same,inhibition at 10 µM,[8],< 10%
same,inhibition at 10 µM,[9],< 10%
same,inhibition at 10 µM,[10],< 10%
same,inhibition at 10 µM,[11],< 10%
same,inhibition at 10 µM,[12],< 10%
same,inhibition at 10 µM,[13],< 10%
same,inhibition at 10 µM,[14],< 10%
same,inhibition at 10 µM,[15],< 10%
same,inhibition at 10 µM,[16],< 10%
same,inhibition at 10 µM,[17],< 10%
same,inhibition at 10 µM,[18],< 10%
same,inhibition at 10 µM,[19],< 10%
same,inhibition at 10 µM,[20],< 10%
same,inhibition at 10 µM,[21],10.4%
same,inhibition at 10 µM,[22],< 10%
same,inhibition at 10 µM,[23],< 10%
same,inhibition at 10 µM,[24],18.4%
same,inhibition at 10 µM,[25],< 10%
same,inhibition at 10 µM,[26],< 10%
"CCc1cccc2cc(C3C=C(c4ccc(OC)cc4)NC(=S)N3)c(Cl)nc12 (centres unmarked) [Compound 6a, 4-(2-Chloro-8-ethylquinolin-3-yl)-6-(4-methoxyphenyl)-3,4-dihydropyrimidine-2(1H)-thione]",inhibition at 10 µM,[1],< 10%
same,inhibition at 10 µM,[2],< 10%
same,inhibition at 10 µM,[3],< 10%
same,inhibition at 10 µM,[4],< 10%
same,inhibition at 10 µM,[5],< 10%
same,inhibition at 10 µM,[6],< 10%
same,inhibition at 10 µM,[7],< 10%
same,inhibition at 10 µM,[8],< 10%
same,inhibition at 10 µM,[9],< 10%
same,inhibition at 10 µM,[10],< 10%
same,inhibition at 10 µM,[11],< 10%
same,inhibition at 10 µM,[12],13.2%
same,inhibition at 10 µM,[13],< 10%
same,inhibition at 10 µM,[14],< 10%
same,inhibition at 10 µM,[15],< 10%
same,inhibition at 10 µM,[16],< 10%
same,inhibition at 10 µM,[17],< 10%
same,inhibition at 10 µM,[18],< 10%
same,inhibition at 10 µM,[19],< 10%
same,inhibition at 10 µM,[20],< 10%
same,inhibition at 10 µM,[21],16.2%
same,inhibition at 10 µM,[22],< 10%
same,inhibition at 10 µM,[23],< 10%
same,inhibition at 10 µM,[24],< 10%
same,inhibition at 10 µM,[25],< 10%
same,inhibition at 10 µM,[26],< 10%
"CCc1cccc2cc(-c3cc(-c4ccc(F)cc4)[nH]c(=O)c3C#N)c(Cl)nc12 [Compound 4d, 4-(2-Chloro-8-ethylquinolin-3-yl)-6-(4-fluorophenyl)-2-oxo-1,2-dihydropyridine-3-carbonitrile]",inhibition at 10 µM,[1],15%
same,inhibition at 10 µM,[2],12%
same,inhibition at 10 µM,[3],< 10%
same,inhibition at 10 µM,[4],< 10%
same,inhibition at 10 µM,[6],< 10%
same,inhibition at 10 µM,[7],< 10%
same,inhibition at 10 µM,[8],< 10%
same,inhibition at 10 µM,[9],< 10%
same,inhibition at 10 µM,[10],15.3%
same,inhibition at 10 µM,[11],< 10%
same,inhibition at 10 µM,[13],< 10%
same,inhibition at 10 µM,[14],< 10%
same,inhibition at 10 µM,[15],16.8%
same,inhibition at 10 µM,[16],< 10%
same,inhibition at 10 µM,[17],< 10%
same,inhibition at 10 µM,[18],< 10%
same,inhibition at 10 µM,[19],< 10%
same,inhibition at 10 µM,[20],< 10%
same,inhibition at 10 µM,[21],19.5%
same,inhibition at 10 µM,[22],< 10%
same,inhibition at 10 µM,[23],< 10%
same,inhibition at 10 µM,[24],24.6%
same,inhibition at 10 µM,[25],17.8%
same,inhibition at 10 µM,[26],< 10%
"CCc1cccc2cc(C3C=C(c4ccc(OC)c(OC)c4)NC(=S)N3)c(Cl)nc12 (centres unmarked) [Compound 6b, 4-(2-Chloro-8-ethylquinolin-3-yl)-6-(3,4-dimethoxyphenyl)-3,4-dihydropyrimidine-2(1H)-thione]",inhibition at 10 µM,[1],53.3%
same,inhibition at 10 µM,[2],< 10%
same,inhibition at 10 µM,[3],< 10%
same,inhibition at 10 µM,[4],22.1%
same,inhibition at 10 µM,[5],< 10%
same,inhibition at 10 µM,[6],< 10%
same,inhibition at 10 µM,[7],< 10%
same,inhibition at 10 µM,[8],< 10%
same,inhibition at 10 µM,[9],< 10%
same,inhibition at 10 µM,[10],< 10%
same,inhibition at 10 µM,[11],< 10%
same,inhibition at 10 µM,[12],< 10%
same,inhibition at 10 µM,[13],< 10%
same,inhibition at 10 µM,[14],< 10%
same,inhibition at 10 µM,[15],14.1%
same,inhibition at 10 µM,[16],< 10%
same,inhibition at 10 µM,[17],11.1%
same,inhibition at 10 µM,[18],< 10%
same,inhibition at 10 µM,[19],< 10%
same,inhibition at 10 µM,[20],< 10%
same,inhibition at 10 µM,[21],30.2%
same,inhibition at 10 µM,[22],< 10%
same,inhibition at 10 µM,[23],< 10%
same,inhibition at 10 µM,[24],15.7%
same,inhibition at 10 µM,[25],12.8%
same,inhibition at 10 µM,[26],13.2%
"CCc1cccc2cc(C3C=C(c4cc(OC)c(OC)c(OC)c4)NC(=S)N3)c(Cl)nc12 (centres unmarked) [Compound 6c, 4-(2-Chloro-8-ethylquinolin-3-yl)-6-(3,4,5-trimethoxyphenyl)-3,4-dihydropyrimidine-2(1H)-thione]",inhibition at 10 µM,[1],67.7%
same,inhibition at 10 µM,[2],25.8%
same,inhibition at 10 µM,[3],30%
same,inhibition at 10 µM,[4],50.3%
same,inhibition at 10 µM,[5],36.4%
same,inhibition at 10 µM,[6],28.1%
same,inhibition at 10 µM,[7],13.4%
same,inhibition at 10 µM,[8],30.3%
same,inhibition at 10 µM,[9],23.4%
same,inhibition at 10 µM,[10],33.3%
same,inhibition at 10 µM,[11],< 10%
same,inhibition at 10 µM,[12],30.1%
same,inhibition at 10 µM,[13],43.5%
same,inhibition at 10 µM,[15],38.2%
same,inhibition at 10 µM,[16],14.3%
same,inhibition at 10 µM,[17],34%
same,inhibition at 10 µM,[18],18.2%
same,inhibition at 10 µM,[19],11.6%
same,inhibition at 10 µM,[20],24.4%
same,inhibition at 10 µM,[21],64.1%
same,inhibition at 10 µM,[22],21.7%
same,inhibition at 10 µM,[23],12.6%
same,inhibition at 10 µM,[24],44.3%
same,inhibition at 10 µM,[25],10.5%
same,inhibition at 10 µM,[26],40.5%
"CCc1cccc2cc(C3C=C(c4ccc(F)cc4)NC(=S)N3)c(Cl)nc12 (centres unmarked) [Compound 6d, 4-(2-Chloro-8-ethylquinolin-3-yl)-6-(4-fluorophenyl)-3,4-dihydropyrimidine-2(1H)-thione]",inhibition at 10 µM,[1],48.8%
same,inhibition at 10 µM,[2],11.8%
same,inhibition at 10 µM,[3],< 10%
same,inhibition at 10 µM,[4],25%
same,inhibition at 10 µM,[5],28.3%
same,inhibition at 10 µM,[6],13.2%
same,inhibition at 10 µM,[7],< 10%
same,inhibition at 10 µM,[8],< 10%
same,inhibition at 10 µM,[9],< 10%
same,inhibition at 10 µM,[10],< 10%
same,inhibition at 10 µM,[11],< 10%
same,inhibition at 10 µM,[12],10.8%
same,inhibition at 10 µM,[13],< 10%
same,inhibition at 10 µM,[14],< 10%
same,inhibition at 10 µM,[15],< 10%
same,inhibition at 10 µM,[16],< 10%
same,inhibition at 10 µM,[17],17%
same,inhibition at 10 µM,[18],< 10%
same,inhibition at 10 µM,[19],< 10%
same,inhibition at 10 µM,[20],< 10%
same,inhibition at 10 µM,[21],26.1%
same,inhibition at 10 µM,[22],< 10%
same,inhibition at 10 µM,[23],< 10%
same,inhibition at 10 µM,[24],24.6%
same,inhibition at 10 µM,[25],< 10%
